According to patent US6677362B1, “Solid pharmaceutical dispersions” (Warner-Lambert Company, priority 1991, dated 2004):

Assays:
[1] = in vivo bioavailability studies involving animal models; settings: administered in its original crystalline form
[2] = solubility of the drug in water / aqueous media; assay type: physicochemical

## Cc1c(C)c2c(c(C)c1O)CCC(C)(COc1ccc(CC3SC(=O)NC3=O)cc1)O2 (single isomer, unassigned; (+)) [Romglizone, (+)-5-[4-(6-hydroxy-2,5,7,8-tetramethylchroman-2-ylmethoxy)-benzyl]-2,4-thiazolidinedione]
[1]
  bioavailability: poor bioavailability
[2]; as the pH of the aqueous media increases
  change of solubility with pH: slightly increases
[2]; water
  solubility in water: practically insoluble
